In patent US20230102836A1, “Amoebicidal Compositions for Contact Lens Solutions” (University of the West of Scotland, priority 2019, published 2023):
Values joined by “and” are separate entries in the source; they are usually repeats but may differ in a detail not shown here. Equal entries are not always repeated.

Tests used:
[1] = system: A. castellanii trophozoites; experiment: Cytotoxicity assay on trophozoites (resazurin / alamarBlue); type: cell-based, Acanthamoeba castellanii ATCC 50370; conditions: Acanthamoeba castellanii; Table 2; read-out: IC50 A. castellanii trophozoites
Protocol: (§1) Acanthamoeba castellanii ATCC 50370 trophozoites and cysts were cultured in Peptone Glucose (PG) medium and encystment medium (Chagla A H, Griffiths A J (1974) Microbiology: 85(1): 139-145) respectively at 25° C. Cysts were prepared by incubating trophozoites for 8 days in encystment medium and integrity validated with calcofluor (0.25 μg/ml) assay (Gatti S et al (2010) J. Med. Microbiol.; 59: 1324-1330) or sodium dodecyl sulfate (SDS, 0.5% w/v) disintegration assay (Dudley R et al (2005) Acta Trop.; 9: 100-8) and microscopic observation.
The compounds used in this study all contained alkyl-carbon chains: three APCs [dodecyl-PC (APC12), tetradecyl-PC. (APC14) and hexadecyl-PC (APC16)] (Anatrace) and four QACs [docdecyl-TMAB (QAC12), tetradecyl-TMAB (QAC14), hexadecyl-TMAB (QAC16) and octadecyl-TMAB (QAC18)](Sigma). All were prepared to a stock concentration of 1 mg/ml and diluted as required by the experimental protocol in the cytotoxicity assays. […]
[…] Resazurin (7-Hydroxy-31-phenoxazin-3-one 10-oxide; 5 mg/ml; McBride J et al (2005) J. Clin. Microbiol.; 43: 629-634) and trypan blue (0.4 μg/ml; Mafra C S P et al (2013) Investig. Ophthalmol. Vis. Si.; 54: 6363-6372) were then added to trophozoites and cysts respectively after being exposed to the compounds and the cell viability estimated microscopically and from changes in absorbance (at 595 nm and 570 nm) respectively.
Efficacy was expressed as a percentage of untreated controls for each drug concentration used and the data used to calculate the IC50. Cell density was estimated using the modified Neubaur hemocytometer and expressed as cells/ml.

[2] = system: A. castellanii trophozoites; experiment: Drug wash-out / alamarBlue-reversion assay, trophozoites; type: cell-based, Acanthamoeba castellanii ATCC 50370
A. castellanii cysts = experiment: Drug wash-out / alamarBlue-reversion assay, cysts; type: cell-based, Acanthamoeba castellanii ATCC 50370; conditions: for Back transformation to trophozoites after drug wash-out: Cysts; as to Back transformation to trophozoites after drug wash-out: key: +: indicates cells reverting back to trophozoites after washout; and capable of oxidizing reduced alamarBlue from blue to pink after 8 days; −: indicates cell that did not revert to trophozoites after wash-out and unable to oxidise reduced alamarBlue solution
Protocol: For the drug kinetic assay, viability was assessed by the linked alamarBlue-reversion assay. Drug-treated cysts were washed with PBS and fresh PG medium was added to allow reversion to trophozoites for 5 days, after which, alamar blue was added and viability estimated as described above.
The cysticidal activity of QAC16 to QAC18 strongly correlated with (a) the alkyl-carbon chain lengths (Table 2) and the duration of drug contact (FIG. 8H). Like trophozoites, death was via leakage judged by 40% and 50% increase in DNA and proteins in the external milieu after 1 h (FIGS. 9A and 9B). To investigate if the cyst were viable, a complementary viability assay that involved, drug washout, incubation in PG medium to allow reversion of viable cyst to trophozoite for 7 days, and estimation of viability using the oxidation of resazurin after 6 h.

[3] = system: Acanthamoeba trophozoites; experiment: Checkerboard dilution QAC-APC interaction (Bliss model); type: cell-based, Acanthamoeba castellanii; conditions: APC12, APC14, APC16; 96 h at 25° C.
Protocol: Acanthamoeba trophozoites (10^5 cells/ml. n=5/treatment) treated with 100 μg/ml doubly diluted to 0.06 μg/ml of QAC12 (FIG. 7A), […], QAC16 (FIG. 7C) and QAC18 (FIG. 7D) with APC 12 (i), APCI 4 (ii) and APC16 (iii) for 96 h at 25° C. Cell viability estimated by the alamarBlue assay the dose-response curves used to produce a surface analysis (right panel) and the interaction profile determined using the Bliss model. The degree of interaction characterised by the QCScore heuristic score are produced as heat map (left panel). The colour of each cell in the heatmap and the surface analysis represents the assay response at that dose combination; red to orange, antagonistic: yellow to green, additive and blue, synergistic.
The change in potency between QAC and APC prompted us to used the checkerboard dilution method to identify synergistic interactions (FIG. 7A-D). Three interaction profiles, antagonistic (orange to red), additive (yellow to green) and synergistic (blue) were observed, with optimal synergistic interactions deemed to be significant occurring between 20-38%; (FIG. 7).

[4] = system: A. castellanii trophozoites; experiment: SDS disintegration of QAC-treated trophozoites; type: cell-based, Acanthamoeba castellanii ATCC 50370; conditions: QAC18-treated, 0.5% SDS for 30 min
Protocol: Acanthamoeba trophozoites ([…]) incubated without (FIG. 2A), with QAC18 at 37.5 μg/ml for 1 h at 25° C. (FIG. 2B), and 0.5% SDS for 30 min (FIG. 2C). QAC18 reduced trophozoites sizes from 29.02±0.23 (FIG. 2A) to 7.87 f 0.93 (FIG. 2B) which disintegrated after 30 min treatment with SDS (FIG. 2C).
as §1

CCCCCCCCCCCCCCCCCC[N+](C)(C)C.[Br-] [QAC18, octadecyltrimethyl ammonium bromide]
IC50 [1]: 1.06 µg/mL and 3 µM | Back transformation to trophozoites after drug wash-out ([2]; 9.375 μg/ml, 1 h): + | Back transformation to trophozoites after drug wash-out ([2]; 9.375 μg/ml, 24 h): − | Back transformation to trophozoites after drug wash-out ([2]; 9.375 μg/ml, 48 h): − | Back transformation to trophozoites after drug wash-out ([2]; 9.375 μg/ml, 72 h): − | Back transformation to trophozoites after drug wash-out ([2]; 9.375 μg/ml, 96 h): − | Back transformation to trophozoites after drug wash-out ([2]; 18.75 μg/ml, 1 h): + | Back transformation to trophozoites after drug wash-out ([2]; 18.75 μg/ml, 24 h): − | Back transformation to trophozoites after drug wash-out ([2]; 18.75 μg/ml, 48 h): − | Back transformation to trophozoites after drug wash-out ([2]; 18.75 μg/ml, 72 h): − | Back transformation to trophozoites after drug wash-out ([2]; 18.75 μg/ml, 96 h): − | Back transformation to trophozoites after drug wash-out ([2]; 37.50 μg/ml, 1 h): − | Back transformation to trophozoites after drug wash-out ([2]; 37.50 μg/ml, 24 h): − | Back transformation to trophozoites after drug wash-out ([2]; 37.50 μg/ml, 48 h): − | Back transformation to trophozoites after drug wash-out ([2]; 37.50 μg/ml, 72 h): − | Back transformation to trophozoites after drug wash-out ([2]; 37.50 μg/ml, 96 h): − | Amoebotoxicity after wash-out and replacement with PG medium ([2]; after 24 h at 9.375 μg/ml): amoebotoxic | Amoebotoxicity after wash-out and replacement with PG medium ([2]; from 1 h onwards at 37.5 μg/ml): amoebotoxic | Resurgence of cysts after drug washout (A. castellanii cysts; 18.75 μg/ml after 48 h): No resurgence | Resurgence of cysts after drug washout (A. castellanii cysts; 37.5 μg/ml after 24 h): No resurgence | Back transformation to trophozoites after drug wash-out (A. castellanii cysts; 9.375 μg/ml, 24 h): + | Back transformation to trophozoites after drug wash-out (A. castellanii cysts; 9.375 μg/ml, 48 h): + | Back transformation to trophozoites after drug wash-out (A. castellanii cysts; 9.375 μg/ml, 72 h): + | Back transformation to trophozoites after drug wash-out (A. castellanii cysts; 18.75 μg/ml, 24 h): + | Back transformation to trophozoites after drug wash-out (A. castellanii cysts; 18.75 μg/ml, 48 h): + | Back transformation to trophozoites after drug wash-out (A. castellanii cysts; 18.75 μg/ml, 72 h): + | Back transformation to trophozoites after drug wash-out (A. castellanii cysts; 37.50 μg/ml, 24 h): − | Back transformation to trophozoites after drug wash-out (A. castellanii cysts; 37.50 μg/ml, 48 h): − | Back transformation to trophozoites after drug wash-out (A. castellanii cysts; 37.50 μg/ml, 72 h): − | Interaction profile of QAC combined with APCs [3]: No significant synergy | Disintegration of shrunk treated trophozoites by 0.5% SDS [4]: 92%
